Here are results for two molecules from PMC2151574 (The Journal of General Physiology, 2006).

In one test the test system is BK channels. The following applies: cited from earlier work.
Test [1] has as its target wild-type BK channel (mslo, mbr5) (Mus musculus, UniProt Q08460). As to the kind of experiment: Macroscopic block of wild-type BK currents, inside-out patch clamp. In kind it is cell-based. The following applies: wild type, 120 mV, five patches.
Test [2] addresses wild-type BK channel (mslo) (Mus musculus, UniProt Q08460). The test can be described thus: Competition between TBA and EBP on macroscopic BK currents. The class given is cell-based. The following applies: 500 μM TBA on top of 3 μM EBP, compared with 3 μM EBP alone.
Test [3] concerns the target S6/2-KcsA BK channel construct (Mus musculus, UniProt Q08460, A378T/A381G/E386A/E389T/I387L/I388A/I391F/L377I/L390W/M379S/P385A/S382L/V384T/Y383V). In kind it is cell-based.
Test [4] has as its system S6/2-KcsA BK channel construct. In kind it is cell-based, mouse. To be noted: 0.4 mM TBA.
In test [5] the target is T1, E321N, E324N mutant BK channel (Mus musculus, UniProt Q08460, E386N/E389N). The test can be described thus: Single channel recordings, E321N, E324N mutant. In kind it is cell-based. The following applies: 1 mM TBA in E321N, E324N mutant vs 0.4 mM in wild type, 120 mV.
The target of test [6] is T1, E321N, E324N mutant BK channel. In kind it is cell-based.

T1 sequence (Q08460 66-1209 E386N/E389N limits assumed): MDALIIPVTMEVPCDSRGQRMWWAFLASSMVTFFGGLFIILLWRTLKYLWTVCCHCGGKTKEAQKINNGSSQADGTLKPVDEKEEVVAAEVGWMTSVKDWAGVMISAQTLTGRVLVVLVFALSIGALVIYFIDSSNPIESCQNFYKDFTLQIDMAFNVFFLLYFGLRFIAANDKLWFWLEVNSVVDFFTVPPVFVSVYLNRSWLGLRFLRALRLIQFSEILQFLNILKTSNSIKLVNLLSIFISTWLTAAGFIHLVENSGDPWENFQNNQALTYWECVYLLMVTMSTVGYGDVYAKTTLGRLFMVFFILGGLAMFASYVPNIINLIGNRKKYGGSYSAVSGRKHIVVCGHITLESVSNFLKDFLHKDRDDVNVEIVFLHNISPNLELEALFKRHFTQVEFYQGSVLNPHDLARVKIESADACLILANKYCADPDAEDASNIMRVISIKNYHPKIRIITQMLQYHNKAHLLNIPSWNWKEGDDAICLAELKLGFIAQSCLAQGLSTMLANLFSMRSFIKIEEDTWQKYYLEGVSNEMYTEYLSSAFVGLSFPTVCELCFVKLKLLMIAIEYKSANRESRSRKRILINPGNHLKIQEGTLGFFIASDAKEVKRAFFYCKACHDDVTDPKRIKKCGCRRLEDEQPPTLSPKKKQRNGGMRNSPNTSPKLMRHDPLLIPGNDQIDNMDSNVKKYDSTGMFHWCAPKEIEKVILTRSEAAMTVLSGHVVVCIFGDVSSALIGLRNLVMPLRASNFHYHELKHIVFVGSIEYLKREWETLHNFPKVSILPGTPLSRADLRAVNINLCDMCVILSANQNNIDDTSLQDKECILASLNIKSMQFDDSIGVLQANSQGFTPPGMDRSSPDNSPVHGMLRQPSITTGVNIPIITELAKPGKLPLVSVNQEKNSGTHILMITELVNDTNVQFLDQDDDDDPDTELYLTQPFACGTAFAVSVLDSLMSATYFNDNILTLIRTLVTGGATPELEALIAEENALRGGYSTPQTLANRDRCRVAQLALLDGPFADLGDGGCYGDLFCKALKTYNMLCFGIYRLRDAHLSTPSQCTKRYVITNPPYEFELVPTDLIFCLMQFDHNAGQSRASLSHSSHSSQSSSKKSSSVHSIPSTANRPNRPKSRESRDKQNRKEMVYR
S6/2-KcsA BK channel construct (Mus musculus, UniProt Q08460, A378T/A381G/E386A/E389T/I387L/I388A/I391F/L377I/L390W/M379S/P385A/S382L/V384T/Y383V), sequence (Q08460 28-1196 isoform Q08460-2 with the stated changes): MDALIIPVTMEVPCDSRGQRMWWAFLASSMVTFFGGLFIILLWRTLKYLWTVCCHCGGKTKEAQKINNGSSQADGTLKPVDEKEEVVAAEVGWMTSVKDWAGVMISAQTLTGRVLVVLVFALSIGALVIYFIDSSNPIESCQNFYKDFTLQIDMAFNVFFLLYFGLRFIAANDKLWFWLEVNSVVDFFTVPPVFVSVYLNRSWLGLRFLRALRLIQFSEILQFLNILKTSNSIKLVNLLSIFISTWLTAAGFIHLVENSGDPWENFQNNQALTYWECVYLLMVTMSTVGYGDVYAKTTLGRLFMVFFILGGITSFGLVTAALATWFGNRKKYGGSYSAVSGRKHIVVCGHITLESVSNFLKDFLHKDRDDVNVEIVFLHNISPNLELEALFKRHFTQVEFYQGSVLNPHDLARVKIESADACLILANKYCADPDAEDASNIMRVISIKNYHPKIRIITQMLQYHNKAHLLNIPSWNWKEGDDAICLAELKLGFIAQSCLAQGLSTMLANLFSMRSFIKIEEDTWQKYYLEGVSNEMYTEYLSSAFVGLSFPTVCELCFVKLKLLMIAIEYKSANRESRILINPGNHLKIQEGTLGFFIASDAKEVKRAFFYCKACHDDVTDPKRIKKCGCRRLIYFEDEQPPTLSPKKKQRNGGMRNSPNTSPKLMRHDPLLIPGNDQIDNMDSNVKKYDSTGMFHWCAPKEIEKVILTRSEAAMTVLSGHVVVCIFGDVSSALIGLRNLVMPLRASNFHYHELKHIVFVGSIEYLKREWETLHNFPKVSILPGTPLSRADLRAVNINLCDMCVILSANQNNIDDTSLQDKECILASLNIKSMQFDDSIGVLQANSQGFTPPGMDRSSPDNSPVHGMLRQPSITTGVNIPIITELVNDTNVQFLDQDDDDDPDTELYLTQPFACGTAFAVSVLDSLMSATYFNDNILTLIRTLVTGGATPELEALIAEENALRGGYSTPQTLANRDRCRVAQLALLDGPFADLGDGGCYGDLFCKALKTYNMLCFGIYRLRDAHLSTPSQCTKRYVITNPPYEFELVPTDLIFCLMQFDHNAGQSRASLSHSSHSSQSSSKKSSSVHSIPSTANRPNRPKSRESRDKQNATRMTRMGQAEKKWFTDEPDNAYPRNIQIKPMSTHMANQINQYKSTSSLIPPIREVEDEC
wild-type BK channel (mslo), sequence (Q08460 66-1209 limits assumed): as the sequence (Q08460 66-1209 E386N/E389N limits assumed) above, with N321E, N324E counted along it
wild-type BK channel (mslo, mbr5), sequence (Q08460 66-1209 limits assumed): as the sequence (Q08460 66-1209 E386N/E389N limits assumed) above, with N321E, N324E counted along it

As for `CCCC[N+](CCCC)(CCCC)Cc1ccc(C(=O)c2ccccc2)cc1` [bbTBA], in the test on BK channels (ref Wilkens and Aldrich, 2006), the “access of blocker to BK channels” value is given as “may not be restricted by a cytoplasmic gate”.
For the molecule `CCCC[N+](CCCC)(CCCC)CCCC` [TBA, Tetrabutylammonium], the “Hill coefficient n (TBA)” value was found to be 0.87 in test [1]; 0.97 in test [3] (S6/2-KcsA, 120 mV, five patches); 0.89 in test [6] (E321N, E324N mutant, 120 mV, nine patches). The “reduction of peak current by added TBA” value in test [2] is listed as “about half”. Also, the “slowing of time-dependent EBP block by added TBA” value in test [2] is given as “about twofold”. For the same molecule, the “affinity of TBA in S6/2-KcsA vs wild-type BK” value in test [3] is on record as “almost exactly the same affinity”. In addition, the “block of macroscopic S6/2-KcsA currents by TBA” value in test [3] (100 μM TBA, 120 mV) is given as ~20%. For the same molecule, the “block of mutant currents by TBA” value in test [3] (20 mM TBA, S6/2-KcsA) is ~100%; in test [6] (20 mM TBA, E321N, E324N mutant), ~100%. Further, the “sensitivity of S6/2-KcsA channels to TBA” value in test [3] (voltage ramp −80 to 200 mV, 0.3 and 10 mM TBA) was “sensitive to millimolar concentrations of TBA”. Further, the “block of single S6/2-KcsA channels vs wild-type BK” value in test [4] is “kinetically very similar”. In test [5], the “single channel block in mutant vs wild type” value was “qualitatively very similar”. Further, the “decrease of apparent affinity of block in E321N, E324N mutant vs wild type” value in test [6] (macroscopic currents) is reported as ~2.5 fold. The “inhibition of BK current at steady state” value with BK channels (500 μM TBA, positive potentials, ref Li and Aldrich, 2004) was ~50%. Moreover, in the test with BK channels (internal TBA, "our previous study", ref Li and Aldrich, 2004), the “block of BK channels” value is “fast block of BK channels at submillimolar concentrations”. The “time dependence of block of BK currents” value in the test with BK channels (internal, ref Li and Aldrich, 2004) is recorded as “without apparent time dependence”.
